Key:
h-GABA-A α5β3γ2 [1] = target: T1, h-GABA-A α5β3γ2 (Homo sapiens, UniProt P18507+P31644); experiment: [3H]flumazenil competition binding assay, membranes of HEK293 cells expressing GABAA receptors; conditions: displacement of [3H]-Flumazenil 0.5 nM, HEK293 cells expressing human receptors, mean of two determinations; Table 1
Method in brief: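 Membranes from HEK293 cells transiently expressing human α5β3γ2 GABAA receptors, in Krebs-tris buffer pH 7.5, competed against [3H]flumazenil for 1 hour at 4° C to equilibrium. Bound radioactivity collected on GF/C filters and counted by liquid scintillation; Ki values are means of two determinations.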

h-GABA-A α5β3γ2 [2] = target: T1, h-GABA-A α5β3γ2; experiment: Two-electrode voltage clamp electrophysiology in Xenopus laevis oocytes expressing GABAA receptors, modulation of GABA EC20 current; type: cell-based; design: host or cells: Xenopus laevis oocytes micro-injected with RNA transcripts of the subunits; conditions: Table 1; for Efficacy (GABA) %: % modulation of GABA EC20 = 100*(Fold increase-1); for Fold increase h-GABA-A α5β3γ2 oocyte: test compound at approx. 30 fold its Ki, GABA at EC20
Method in brief: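 Human α5β3γ2 GABAA receptors were expressed in Xenopus oocytes by RNA injection, with γ2 RNA 5–10-fold higher, and recorded 3–5 days later by two-electrode voltage clamp at −80 mV at room temperature. The test compound, at about 30× its Ki, was co-applied during a second GABA EC20 pulse. Efficacy is the extremum of the point-by-point ratio to the first response, expressed as 100*(Fold increase−1).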

| SMILES | Ki (h-GABA-A α5β3γ2 [1]) | Efficacy (GABA) % (h-GABA-A α5β3γ2 [2]) | Fold increase h-GABA-A α5β3γ2 oocyte (h-GABA-A α5β3γ2 [2]) |
| --- | --- | --- | --- |
| Cc1ccc(-c2noc(C)c2Cn2ncc(NC3CN(C4CC4)C3)cc2=O)cn1 [Example 96, 5-((1-cyclopropylazetidin-3-yl)amino)-2-((5-methyl-3-(6-methylpyridin-3-yl)isoxazol-4-yl)methyl)pyridazin-3(2H)-one] | 13 nM | 132% | 2.32 |
| Cc1ccc(-c2noc(C)c2Cn2ncc(N3CCC3)cc2=O)cn1 [Example 97, 5-(azetidin-1-yl)-2-[[5-methyl-3-(6-methyl-3-pyridyl)isoxazol-4-yl]methyl]pyridazin-3-one] | 8.6 nM | 106% | 2.06 |
| Cc1ccc(-c2noc(C)c2Cn2ncc(N3CC(C)(O)C3)cc2=O)cn1 [Example 98, 5-(3-hydroxy-3-methyl-azetidin-1-yl)-2-[[5-methyl-3-(6-methyl-3-pyridyl)isoxazol-4-yl]methyl]pyridazin-3-one] | 7.3 nM | 132% | 2.32 |
| CCOC1CN(c2cnn(Cc3c(-c4ccc(C)nc4)noc3C)c(=O)c2)C1 [Example 99, 5-(3-ethoxyazetidin-1-yl)-2-[[5-methyl-3-(6-methyl-3-pyridyl)isoxazol-4-yl]methyl]pyridazin-3-one] | 14.4 nM | 134% | 2.34 |
| Cc1ccc(-c2noc(C)c2Cn2ncc(N3CC4CC(C3)O4)cc2=O)cn1 [Example 100, 2-[[5-methyl-3-(6-methyl-3-pyridyl)isoxazol-4-yl]methyl]-5-(6-oxa-3-azabicyclo[3.1.1]heptan-3-yl)pyridazin-3-one] | 12.2 nM | 105% | 2.05 |
| COc1ncccc1N1CCN(c2cnn(Cc3c(-c4ccc(C)nc4)noc3C)c(=O)c2)CC1 [Example 101, 5-[4-(2-methoxy-3-pyridyl)piperazin-1-yl]-2-[[5-methyl-3-(6-methyl-3-pyridyl)isoxazol-4-yl]methyl]pyridazin-3-one] | 3.2 nM | 146% | 2.46 |
| Cc1ncc(-c2noc(C)c2Cn2ncc(N(C)C)cc2=O)cc1F [Example 102, 5-(dimethylamino)-2-[[3-(5-fluoro-6-methyl-3-pyridyl)-5-methyl-isoxazol-4-yl]methyl]pyridazin-3-one] | 13.1 nM | 86% | 1.86 |
| Cc1ccc(-c2noc(C)c2Cn2ncc(-c3cnn(C)c3)cc2=O)cn1 [Example 103, 2-((5-methyl-3-(6-methyl-3-pyridyl)isoxazol-4-yl)methyl)-5-(1-methylpyrazol-4-yl)pyridazin-3-one] | 29.7 nM | 141% | 2.41 |
| COC1CN(c2cnn(Cc3c(-c4ccc(C)nc4)noc3C)c(=O)c2)C1 [Example 104, 5-(3-methoxyazetidin-1-yl)-2-[[5-methyl-3-(6-methyl-3-pyridyl)isoxazol-4-yl]methyl]pyridazin-3-one] | 22.9 nM | 134% | 2.34 |
| Cc1ccc(-c2noc(C)c2Cn2ncc(N3CC(O)C3)cc2=O)cn1 [Example 105, 5-(3-hydroxyazetidin-1-yl)-2-[[5-methyl-3-(6-methyl-3-pyridyl)isoxazol-4-yl]methyl]pyridazin-3-one] | 6 nM | 72% | 1.72 |
| Cc1ccc(-c2noc(C)c2Cn2ncc(-c3ccnc(C)c3)cc2=O)cn1 [Example 106, 2-((5-methyl-3-(6-methylpyridin-3-yl)isoxazol-4-yl)methyl)-5-(2-methylpyridin-4-yl)pyridazin-3(2H)-one] | 6.2 nM | 136% | 2.36 |
| COc1cc(-c2cnn(Cc3c(-c4ccc(C)nc4)noc3C)c(=O)c2)ccn1 [Example 107, 5-(2-methoxypyridin-4-yl)-2-((5-methyl-3-(6-methylpyridin-3-yl)isoxazol-4-yl)methyl)pyridazin-3(2H)-one] | 3.8 nM | 70% | 1.7 |
| Cc1ccc(-c2noc(C)c2Cn2ncc(-c3ccnc(C(F)(F)F)c3)cc2=O)cn1 [Example 108, 2-((5-methyl-3-(6-methylpyridin-3-yl)isoxazol-4-yl)methyl)-5-(2-(trifluoromethyl)pyridin-4-yl)pyridazin-3(2H)-one] | 11.4 nM | 104% | 2.04 |
| CCc1nccn1C1CCN(c2cnn(Cc3c(-c4ccc(C)nc4)noc3C)c(=O)c2)CC1 [Example 109, 5-[4-(2-ethylimidazol-1-yl)-1-piperidyl]-2-[[5-methyl-3-(6-methyl-3-pyridyl)isoxazol-4-yl]methyl]pyridazin-3-one] | 2.2 nM | 107% | 2.07 |
| Cc1ccc(-c2noc(C)c2Cn2ncc(N3CCC(n4ccnc4C)CC3)cc2=O)cn1 [Example 110, 5-[4-(2-methylimidazol-1-yl)-1-piperidyl]-2-[[5-methyl-3-(6-methyl-3-pyridyl)isoxazol-4-yl]methyl]pyridazin-3-one] | 1.2 nM | 142% | 2.42 |
| Cc1ccc(-c2noc(C)c2Cn2ncc(N3CC(OCC4CC4)C3)cc2=O)cn1 [Example 111, 5-[3-(cyclopropylmethoxy)azetidin-1-yl]-2-[[5-methyl-3-(6-methyl-3-pyridyl)isoxazol-4-yl]methyl]pyridazin-3-one] | 34.6 nM | 147% | 2.47 |
| Cc1ccc(-c2noc(C)c2Cn2ncc(N3CC(OC(C)C)C3)cc2=O)cn1 [Example 112, 5-(3-isopropoxyazetidin-1-yl)-2-[[5-methyl-3-(6-methyl-3-pyridyl)isoxazol-4-yl]methyl]pyridazin-3-one] | 38 nM | 101% | 2.01 |
| COc1ccc(-c2cnn(Cc3c(-c4ccc(C)nc4)noc3C)c(=O)c2)cc1OC [Example 113, 5-(3,4-dimethoxyphenyl)-2-((5-methyl-3-(6-methyl-3-pyridyl)isoxazol-4-yl)methyl)pyridazin-3-one] | 7.8 nM | 91% | 1.91 |
| Cc1ccc(-c2noc(C)c2Cn2ncc(-c3ccc(OC(F)(F)F)cc3)cc2=O)cn1 [Example 114, 2-((5-methyl-3-(6-methyl-3-pyridyl)isoxazol-4-yl)methyl)-5-(4-(trifluoromethoxy)phenyl)pyridazin-3-one] | 24 nM | 81% | 1.81 |
| Cc1ccc(-c2noc(C)c2Cn2ncc(-c3ccc(OC(C)C)cc3)cc2=O)cn1 [Example 115, 5-(4-isopropoxyphenyl)-2-((5-methyl-3-(6-methyl-3-pyridyl)isoxazol-4-yl)methyl)pyridazin-3-one] | 10.4 nM | 87% | 1.87 |
| Cc1ccc(-c2noc(C)c2Cn2ncc(-c3ccc(N(C)C)nc3)cc2=O)cn1 [Example 116, 5-[6-(dimethylamino)-3-pyridyl]-2-((5-methyl-3-(6-methyl-3-pyridyl)isoxazol-4-yl)methyl)pyridazin-3-one] | 30.8 nM | 84% | 1.84 |
| Cc1ccc(-c2noc(C)c2Cn2ncc(N3CC(O)(C(F)(F)F)C3)cc2=O)cn1 [Example 117, 5-(3-hydroxy-3-(trifluoromethyl)azetidin-1-yl)-2-((5-methyl-3-(6-methylpyridin-3-yl)isoxazol-4-yl)methyl)pyridazin-3(2H)-one] | 4.1 nM | 226% | 3.26 |
| Cc1ccc(-c2noc(C)c2Cn2ncc(N3CCC(C)(O)C3)cc2=O)cn1 (stereo not drawn) [Example 118, 5-(3-hydroxy-3-methylpyrrolidin-1-yl)-2-((5-methyl-3-(6-methylpyridin-3-yl)isoxazol-4-yl)methyl)pyridazin-3(2H)-one] | 9.2 nM | 210% | 3.1 |
| Cc1ccc(-c2noc(C)c2Cn2ncc(N3CCC(C)(O)CC3)cc2=O)cn1 [Example 119, 5-(4-hydroxy-4-methylpiperidin-1-yl)-2-((5-methyl-3-(6-methylpyridin-3-yl)isoxazol-4-yl)methyl)pyridazin-3(2H)-one] | 2.6 nM | 138% | 2.38 |
| Cc1ccc(-c2noc(C)c2Cn2ncc(N3CC[C@H](C(C)(C)O)C3)cc2=O)cn1 [Example 120, 5-((3S)-3-(2-hydroxypropan-2-yl)pyrrolidin-1-yl)-2-((5-methyl-3-(6-methylpyridin-3-yl)-1,2-oxazol-4-yl)methyl)pyridazin-3-one] | 7.3 nM | 172% | 2.72 |
| Cc1ccc(-c2noc(C)c2Cn2ncc(N3CC(Oc4ccc(F)cc4)C3)cc2=O)cn1 [Example 123, 5-[3-(4-fluorophenoxy)azetidin-1-yl]-2-[[5-methyl-3-(6-methyl-3-pyridyl)isoxazol-4-yl]methyl]pyridazin-3-one] | 18.6 nM | 152% | 2.52 |
